Laboratory results: publication PMC5955586, “Transport of enniatin B and enniatin B1 across the blood-brain barrier and hints for neurotoxic effects in cerebral cells” (PLoS ONE, 2018)
pIC50: −log10 of the molar value. Several values for one entry are separate records, joined by “and”; a condition that tells them apart may be missing. Identical values can stand only once. Like-named read-outs stand apart in the source and are kept apart here.

Key:
[1] = system: HT-29; design: method as in PMID 21640785; details: HT-29, 48 h; cited from earlier work
[2] = design: method as in PMID 23598119; details: oral intake 0.05 mg/kg b.w.; cited from earlier work
[3] = system: Caco-2 cells; design: method as in PMID 21640785; details: cited from earlier work
[4] = system: CCF-STTG1 cells; experiment: LDH leakage in CCF-STTG1; type: cell-based, human; details: CCF-STTG1, 0.1 to 2.5 μM, 48 h
Experimental: For measurement of lactate dehydrogenase (LDH) leakage, cell lysates and treatment solutions (serum free medium with respective ENN B/B1 content) after incubation for 48 h were used. The cell lysates were prepared as described for caspase-3 activation assay. To determine the LDH activity, 15 μL of the lysate and 40 μL of the incubation medium were each added to 200 μL substrate buffer (100 mM HEPES, 10 mM sodium pyruvate and 0.21 mM NADH, adjusted to pH 7.0), incubated over the course of 30 min at 37°C and absorption was measured every 2 min at 355 nm in a Infinite M200 PRO microplate reader (Tecan, Crailsheim, Germany).

[5] = design: method as in PMID 24239892; details: pigs, cited from earlier work
[6] = system: HepG2 cells; design: method as in PMID 16730043; details: HepG2, 24 h, Alamar Blue; cited from earlier work
[7] = Pig feeding study, plasma concentration; type: in vivo; details: worst case contamination 5.8 mg/kg ENN B, 18.3 mg/kg ENN B1
[8] = system: PBCEC monolayer; experiment: Transfer across PBCEC monolayer on Transwell filters (BBB model); type: in vitro ADME, porcine
[9] = as above; type: in vitro ADME, porcine; details: pig; apical to basolateral, 1 μM apical application (passive transport); read-out: Permeability coefficient
Experimental: (§1) In accordance with the thawing and seeding procedure for PBCEC, described for the viability test, 500 μL PBCEC suspension (2.5 × 10^5 cells/well) in culture medium were seeded on rat tail collagen coated 12-well Transwell® microporous polycarbonate filter inserts (Corning, Wiesbaden, Germany; growth area 1.12 cm^2, pore size 0.4 μm) in the upper (apical) compartment of the filter system. The lower (basolateral) compartment was filled with 1500 μL complete medium. This two-compartment system was used as model system for the BBB with the apical compartment reflecting the “blood”-side and the basolateral compartment serving as the “brain”-side. After 48 h, the complete medium was replaced by serum free medium. Additionally, 550 nM hydrocortisone (Sigma-Aldrich, Steinheim, Germany) was supplemented to urge differentiation of cells. After another 48 h, experiments studying barrier integrity and permeability were performed.
(§2) Before starting each experiment, the TEER values and the electrical capacitance of all cell layers were measured via cellular impedance spectroscopy (cellZscope®, nanoAnalytics, Münster, Germany). […] TEER values relate to the constitution of the tight junctions limiting paracellular transfer of compounds. In addition to the TEER, electrical capacitances (CCl) were monitored for 48 h. Cellular phospholipid bilayers act like an electrical capacitor and also contribute to the cellular impedance. Changes of the CCl value give information about the integrity of the cell monolayer. In this experiment, a parallel set up was applied. For each treatment, one triplicate of filters was monitored via cellular impedance spectroscopy over the course of 48 h using a cellZscope® device–here, the basolateral compartment was prepared with 1650 μL serum free medium and the volume in the apical compartment was filled to 760 μL (ratio 1:2.17). Another triplicate for the same incubation conditions was kept in Transwell® filter cell culture multiple well plates (12 well format) over the course of 48 h. In the multiple well plates the ratio between the apical and the basolateral compartment was 1:3, therefore the starting volume in the apical compartment is 500 μL and 1500 μL in the basolateral compartment. Here, samples for quantitation of transfer of enniatins across the barrier were drawn after 1, 2.5, 6.5, 18, 24, 28, 42 and 48 hours in this given ratio i.e. 30 μL apical and 90 μL basolateral. After 48 h, the final TEER values of the filters from the multiple well plate were measured to ensure the stability of the cell layer throughout the experiment. To double check the integrity of the barrier, lucifer yellow (LY, 50 μM), as a paracellular transfer marker, was applied. The amount of LY found in the basolateral compartment after 1 h was measured at λex = 430 nm and λ em = 540 nm.
(§3) After the completion of the experiment, the polycarbonate filter membranes were extracted. The filters were cut out and extracted with ACN/H2O (8+2, v/v) via ultrasonication for 1 h. The extract was evaporated (vacuum concentrator BA-VC-200 H, Bachofer GmbH + Co KG, Reutlingen, Germany) and reconstituted in 200 μL of ACN/H2O (8+2, v/v). The obtained samples and filter extracts were analyzed and quantitated with high performance liquid chromatography-tandem mass spectrometry (HPLC-MS/MS).
(§4) The quantitation of ENN B and ENN B1 by HPLC-MS/MS was carried out using an 1100 series (Agilent Technologies, Santa Clara, USA) high performance liquid chromatography (HPLC) system and API 3200 (AB SCIEX Germany GmbH, Darmstadt, Germany) mass spectrometer. Both devices were operated with Analyst Version 1.6.2 software (AB SCIEX Germany GmbH, Darmstadt, Germany). A Synergi 4 μm Fusion-RP 80 Å 50 × 2.0 mm (Phenomenex) equipped with a Synergy 4 μm Fusion-RP 4 × 2.0 mm (Phenomenex) precolumn was used and maintained at 40°C. A binary gradient consisting of ACN (A) and water (B) (both containing 0.1% formic acid) was applied. […]

[10] = system: PBCEC monolayer; experiment: as above; type: in vitro ADME, porcine; details: for active transport: 200 nM equimolar on both sides; for amount of apically applied compound found in basolateral compartment: after 6.5 h; for amount in filter membrane with attached PBCEC relative to applied amount: extraction after 48 h
Experimental: as §1, §2, §3, §4

[11] = design: method as in PMID 25757886; details: ex vivo human skin; cited from earlier work
[12] = design: method as in PMID 21622627; details: liver microsomes human, dog and rat; cited from earlier work

| Compound | pIC50 [1] | concentration in pig plasma [2] | pIC50 ([3]; read-out: IC50) | LDH release [4] | Tmax ([5]; oral) [min] | ka ([5]; oral) [h⁻¹] | oral bioavailability [5] | pIC50 [6] | theoretical plasma levels [7] | metabolites by high resolution mass spectrometry screening [8] | Papp A→B at 1 μM [9] [×10⁻⁶ cm/s] | active transport [10] | amount transferred to basolateral compartment ([10]; 1 μM (0.5 nmol) apical, 6.5 h to 48 h) | amount of apically applied compound found in basolateral compartment ([10]; 1 μM (0.5 nmol) apical) [%] | amount in filter membrane with attached PBCEC relative to applied amount [10] | permeation kp,v [11] [×10⁻⁶ cm/s] | IC50 [3] | metabolites formed [12] | plateau of amount in basolateral compartment ([10]; 1 μM (0.5 nmol) apical) [%] |
| --- | --- | --- | --- | --- | --- | --- | --- | --- | --- | --- | --- | --- | --- | --- | --- | --- | --- | --- | --- |
| CC[C@H](C)[C@H]1C(=O)O[C@H](C(C)C)C(=O)N(C)[C@@H](C(C)C)C(=O)O[C@H](C(C)C)C(=O)N(C)[C@@H](C(C)C)C(=O)O[C@H](C(C)C)C(=O)N1C [ENN B1, enniatin B1] | 5.43 | 0.035 μg/mL and 0.054 μM | 4.94 | no significant increase of LDH release | 14.4 | 4.66 | up to 91% | 4.44 | 0.641 μg/mL and 0.980 μM | no metabolites were detected | 14.6 | minor enrichment in the apical compartment | up to 55% | 44 | 2.7% |  |  |  |  |
| CC(C)[C@H]1C(=O)O[C@H](C(C)C)C(=O)N(C)[C@@H](C(C)C)C(=O)O[C@H](C(C)C)C(=O)N(C)[C@@H](C(C)C)C(=O)O[C@H](C(C)C)C(=O)N1C [ENN B, enniatin B] | 5.55 | 0.073 μg/mL and 0.114 μM |  | no significant increase of LDH release |  |  |  | 3.36 | 0.423 μg/mL and 0.662 μM |  | 14.9 | minor enrichment in the apical compartment |  | 53 | below 1% | 0.00262 | no IC50 could be calculated | several phase I metabolites | 70 ± 4 |
